From PubChem BioAssay AID1259371 (The Scripps Research Institute Molecular Screening Center, 2018)
pIC50: −log10 of the molar value. Calls of active or inactive are those of the source. How the calls were made is not given here.

Target: Microphthalmia-associated transcription factor (Homo sapiens) (UniProt O75030)
Test: compounds blocking human MITF signal – biochemical, AlphaScreen, dose response (AID 1259371)
Settings: AlphaScreen biochemical MITF assay, signal inhibition

Microphthalmia-associated transcription factor (Homo sapiens), sequence (O75030 whole entry, looked up): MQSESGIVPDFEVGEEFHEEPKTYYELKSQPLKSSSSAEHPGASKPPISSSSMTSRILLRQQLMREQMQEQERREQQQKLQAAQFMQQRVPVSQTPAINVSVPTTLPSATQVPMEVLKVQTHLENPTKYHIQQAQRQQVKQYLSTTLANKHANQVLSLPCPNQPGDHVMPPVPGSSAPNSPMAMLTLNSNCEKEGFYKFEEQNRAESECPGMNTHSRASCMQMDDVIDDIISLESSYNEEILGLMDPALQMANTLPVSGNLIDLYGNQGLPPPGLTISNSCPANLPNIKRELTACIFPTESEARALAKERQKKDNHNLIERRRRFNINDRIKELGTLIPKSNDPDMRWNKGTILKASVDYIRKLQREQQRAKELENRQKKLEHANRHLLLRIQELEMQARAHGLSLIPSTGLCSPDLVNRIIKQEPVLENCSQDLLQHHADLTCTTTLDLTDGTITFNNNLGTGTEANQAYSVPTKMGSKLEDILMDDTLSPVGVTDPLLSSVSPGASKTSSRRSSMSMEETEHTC

Compound	pIC50	IC50
Nc1cc(Br)cnc1N	7.21	–
Clc1ccc(CN2CCN(Cc3c[nH]c4ccccc34)CC2)cc1	–	inactive
CN(C)CCn1nnnc1SCC1=C(C(=O)O)N2C(=O)[C@@H](NC(=O)Cc3csc(N)n3)[C@H]2SC1	6.67	–
CC(C)[C@@H]1NC(=O)[C@H]2CN(C(=O)NC3CCCCC3)CCN2C1=O	–	> 2160 nM (inactive)
COc1ccc(C[C@@H]2NC(=O)[C@H]3CN(C(=O)NCc4ccccc4)CCN3C2=O)cc1	–	inactive
CN(C)C(=O)N1CCN(S(=O)(=O)c2cccc([N+](=O)[O-])c2)CC1	–	> 6480 nM (inactive)
CN=C1SC(CC(=O)Nc2cccc(C(=O)O)c2)C(=O)N1C (stereo unspecified)	–	inactive
COc1cc(C)c2c(c1C=O)Oc1c(c(C)c(O)c3c1C(O)OC3=O)OC2=O (stereo unspecified)	6.33	–
O=C(/C=C/c1ccco1)NC(=S)NNC(=O)c1ccccc1O	–	> 2160 nM (inactive)
O=C(/C=C/c1ccco1)NC(=S)Nc1ccc(Cl)c(C(=O)O)c1	6.28	–
O=C(O)c1cccc2c1C(=O)N(c1ccccc1)C2	–	inactive
CN(C)CCS(=O)c1cc(-c2cn[nH]c2)ccc1NC(=O)[C@H]1Cc2cc(F)ccc2CN1 (stereo partly specified)	–	inactive
Cc1ccccc1/C=C1\N=C(c2cc(C3=N/C(=C/c4ccccc4C)C(=O)O3)cc(C3=N/C(=C/c4ccccc4C)C(=O)O3)c2)OC1=O	–	inactive
CC(Oc1ccc(O)cc1)(P(=O)(O)O)P(=O)(O)O	7.07	–
O=P(O)(O)C(O)(CCNC(=S)Nc1ccccc1)P(=O)(O)O	–	inactive
NC(=O)c1cccc(-c2cccs2)c1	–	inactive
CN(C)c1ccc(O)c2c1C[C@H]1C[C@H]3[C@H](N(C)C)C(=O)C(C(N)=O)=C(O)[C@@]3(O)C(=O)C1=C2O	7.53	–
COc1cc2cc3c(N)c(C(=O)Nc4sc(C)c(C)c4C#N)sc3nc2cc1OC	6.39	–
O=c1[nH]cnc2nc(-c3ccco3)c(-c3ccco3)nc12	7.10	–
COC(C)(C)CNC(=O)C1CCN(C2CCN(Cc3cccc(C)n3)CC2)CC1	–	inactive
Cc1ccc(/C(C#N)=C\c2ccco2)cc1	–	inactive
COc1ccc(CCNC(=O)CN2CCN(Cc3nc(-c4ccco4)cs3)CC2)cc1OC	–	inactive

Compound	pIC50	IC50
N#CC1=c2/c(=C/c3ccco3)c(N)c(C#N)n2C(=O)C(c2ccco2)S1 (stereo unspecified)	7.55	–
CCOc1ccccc1N1CCN(Cc2cc(OC)c(O)c([N+](=O)[O-])c2)CC1	–	> 6480 nM (inactive)
NC(=O)C1CCN(C(=O)c2cc(-c3ccco3)nc3ccccc23)CC1	7.34	–
COCCCNC(=O)/C(C#N)=C/c1ccc(OCC(=O)O)c(OC)c1	–	inactive
Cc1cc(C(=O)O)ccc1-c1ccc(/C=C2/NC(=O)NC2=O)o1	–	inactive
O=C(O)c1cc(-n2cccc2)ccc1Cl	6.57	–
O=C(CN1C(=O)NC2(CCCCCC2)C1=O)NC(=O)NCc1ccco1	–	inactive
COc1cc(-c2ccnc(N)n2)ccc1NC(=O)[C@H]1COc2ccccc2O1	–	inactive
O=C(/C=C/c1ccco1)NCC(=O)N/N=C/c1ccc(C(=O)O)cc1	–	inactive
CC1=NN(c2ccc(C(=O)O)c(N)c2)C(=O)C1	–	inactive
COc1ccc(C[C@@H]2NC(=O)[C@H]3CN(C(=O)NC4CCCCC4)CCN3C2=O)cc1	–	inactive
COc1ccc(CC2NCCc3cc(OC)c(OC)cc32)cc1OC (stereo unspecified)	7.40	–
Cc1cc(N=Cc2ccc([N+](=O)[O-])o2)ccc1S(=O)(=O)O	–	inactive
COc1ccccc1C1(NC(=O)CCCCC2SCC3NC(=O)NC32)CCCC1 (stereo unspecified)	–	inactive
O=C(O)C1CC=CCC1C(=O)Nc1nncs1 (stereo unspecified)	–	inactive
CCN(CCN(C)C)Cc1ccc(F)cc1	–	> 6480 nM (inactive)
CCc1ccc(CN2CCN(C(C)C)CC2)cc1	–	> 6890 nM (inactive)
C[C@H]1C(=O)N2CCN(C(=O)NC3CCCCC3)C[C@@H]2C(=O)N1C	–	inactive
CN(CCOC(=O)/C=C/c1ccco1)Cc1ccccc1	7.32	–
Cc1ccc(N2C(=O)C3C(C2=O)C2(CO)C=CC3(C)O2)cc1[N+](=O)[O-] (stereo unspecified)	–	> 6480 nM (inactive)
S=c1[nH]nc(-c2ccco2)n1/N=C/C=C/c1ccco1	8.28	–
CCC[C@@H]1NC(=O)[C@H]2CN(C(=O)NC3CCCCC3)CCN2C1=O	6.12	–

Compound	pIC50	IC50
CN1C(=O)[C@H]2CN(C(=O)NC3CCCCC3)CCN2C(=O)[C@@H]1CO	–	> 6480 nM (inactive)
Cc1cc(CSC(=N)N)c(O)c(C)n1	6.27	–
Cc1noc(C2CN(C(=O)c3ccc(-n4cccc4)cc3)C2)n1	–	inactive
CN(C)/C=C/C=C/C=C/C(=O)c1ccc(C(=O)/C=C/C=C/C=C/N(C)C)cc1	7.01	–
O=C1c2ccc([N+](=O)[O-])cc2C(=O)N1c1cc(Br)c(O)c(Br)c1	6.79	–
Cc1cc(C)n(C(=O)/C=C/c2ccco2)n1	6.09	–
NC(=O)CSc1ccc(C(N)=O)cc1[N+](=O)[O-]	–	inactive
Cc1sc2nc(C)n3c(=O)n(CC(=O)NCc4ccco4)nc3c2c1C	–	inactive
Cc1ccn2c(NCC3CCCO3)c(-c3ccc(O)cc3O)nc2c1 (stereo unspecified)	7.09	–
COc1ccc2c(c1)CC(c1nc(Nc3ccc4cnccc4c3)c3ccccc3n1)CO2 (stereo unspecified)	–	> 6480 nM (inactive)
COc1ccc2c(c1)CC(C(=O)Nc1ccc(-c3cn[nH]c3)cc1OCC#N)CO2 (stereo unspecified)	–	inactive
CC(O)C(=O)N/N=C/C=C/c1ccc([N+](=O)[O-])o1 (stereo unspecified)	–	inactive
N#Cc1c(-c2ccc3c(c2)OCO3)nc(N2CCCCC2)[nH]c1=O	–	inactive
CC[C@H](C)[C@@H]1NC(=O)[C@H]2CN(C(=O)Nc3cccc(F)c3)CCN2C1=O	–	inactive
O=C(NNC(=S)Nc1ccccc1)C(=O)NNC(=S)Nc1ccccc1	–	inactive
CN1C(=O)[C@H]2CN(C(=O)NC3CCCCC3)CCN2C(=O)[C@@H]1Cc1ccccc1	–	inactive
CC(C)[C@H]1NC(=O)[C@H]2CN(C(=O)NCc3ccccc3)CCN2C1=O	–	inactive
O=C(NC1CCCCC1)N1CCN2C(=O)[C@@H]3CSCN3C(=O)[C@H]2C1	–	inactive
NC(=O)n1c(CCC(=O)O)nc2sc3c(c2c1=O)CCC3	6.68	–
CCCCn1c(=O)[nH]c(=O)c2c1nc(-c1ccc([N+](=O)[O-])o1)n2C	7.18	–
O=C(Cc1cccs1)N/N=C\C=C\c1ccco1	7.07	–
Cc1ccc(COc2ccc(/C=N/N=C3\NC(=O)C(CC(=O)O)S3)cc2)cc1 (stereo unspecified)	–	inactive

Compound	pIC50	IC50
N#Cc1c(SCC(=O)O)nc2c(c1-c1ccco1)CCC2	6.71	–
O=C1CCCC2=C1C(c1ccc([N+](=O)[O-])o1)C1=C(CCCC1=O)O2	–	inactive
Cc1[nH][nH]c(=O)c1C(c1ccccc1OCc1ccc(Br)cc1)c1c(C)[nH][nH]c1=O	–	inactive
O=C1NC(=O)/C(=C\c2ccc(O)cc2O)S1	–	inactive
CN(C)CCS(=O)c1cc(-c2cn[nH]c2)ccc1NC(=O)[C@@H]1Cc2cc(F)ccc2CN1 (stereo partly specified)	–	inactive
O=[N+]([O-])c1c(Br)ccc2c1no[n+]2[O-]	–	inactive
O=C(O)c1cc(S(=O)(=O)Nc2ccncc2)ccc1O	–	inactive
N=C1S/C(=C\c2ccco2)C(=O)N1c1nonc1N	7.47	–
Cc1cccc(CN2CCN(C3CCC(C)CC3)CC2)c1 (stereo unspecified)	–	> 5540 nM (inactive)
CN(C)CCOCCOc1ccccc1-c1ccccc1	–	inactive
NC(=O)COC(=O)/C=C/c1ccc(I)o1	–	inactive
C[C@@H](O)[C@@H]1NC(=O)[C@H]2CN(C(=O)NC3CCCCC3)CCN2C1=O	–	inactive
O=C(O)c1cc(-c2ccco2)nc2ccccc12	–	inactive
C[C@@H](OCc1ccccc1)[C@@H]1NC(=O)[C@H]2CN(C(=O)NCc3ccccc3)CCN2C1=O	–	inactive
Cc1ccc(N[C@@H]2OC[C@@H](O)C(O)C2O)cc1N[C@@H]1OC[C@@H](O)C(O)C1O (stereo partly specified)	–	inactive
CC(C)(C)OC(=O)N1C(C(=O)O)CSC1c1cc2c(cc1[N+](=O)[O-])OCO2 (stereo unspecified)	6.04	–
COc1ccc(/C=C2\N=C(c3ccc4c(c3)OCO4)OC2=O)cc1Cl	6.12	–
COC(=O)c1c(NC(=O)c2ccc([N+](=O)[O-])o2)sc(Cc2ccc3c(c2)OCO3)c1C	–	inactive
C=CCNCCOCCOc1ccc(OCC)cc1	–	> 6480 nM (inactive)
CC(=O)CC1=C(C(=O)O)N2C(=O)C(N)C2SC1 (stereo unspecified)	–	> 6480 nM (inactive)
NC(=O)c1cncc(-c2cccs2)c1	6.49	–
O=C(c1ccncc1)N1CCN(Cc2ccccc2[N+](=O)[O-])CC1	–	> 6130 nM (inactive)

Compound	pIC50	IC50
O=C(Nc1ccc(-c2ccncc2)c(C(F)(F)F)c1)C1COc2ccccc2O1 (stereo unspecified)	–	inactive
CN(C)/C=C/C=C/C(=O)C1CCC/C(=C\C=C\N(C)C)C1=O (stereo unspecified)	7.07	–
Cc1ccc(-c2nnc3s/c(=C\c4ccco4)c(=O)n23)cc1	–	inactive
CCCCNCCOc1ccccc1OCC	–	> 6480 nM (inactive)
CC(C)(C)c1ccc(OCCn2cncn2)c(Cl)c1	–	> 6480 nM (inactive)
C[C@@H]1NC(=O)[C@H]2CN(C(=O)NC3CCCCC3)CCN2C1=O	–	inactive
Cc1ccc(/C=C/C(=O)NCc2ccccn2)o1	–	inactive
CSc1ccc(C(=O)O)s1	–	inactive
O=C1OC(c2ccc(Cl)cc2Cl)=N/C1=C\c1ccc([N+](=O)[O-])o1	–	inactive
O=C(O)CCN(CCC(=O)O)c1ccc(O)cc1	6.86	–
O=C(O)c1ccc(NC2OC(CO)C(O)C2O)cc1 (stereo unspecified)	–	inactive
O=c1[nH]cc(N=Cc2ccc([N+](=O)[O-])o2)c(=O)[nH]1	8.15	–
O=C(c1ccc([N+](=O)[O-])cc1)N1CCN(Cc2cccc3ccccc23)CC1	–	> 5480 nM (inactive)
CN(C)CCNc1nc(C2COc3ccccc3O2)nc2ccc(-c3cn[nH]c3)cc12 (stereo unspecified)	–	inactive
O=C(O)c1ccc(O)c(C=Nc2ccc(N=Cc3cc(C(=O)O)ccc3O)cc2)c1	–	inactive
N#CC(C#N)=C(N)/C(C#N)=C/c1ccc([N+](=O)[O-])o1	6.33	–
C[C@@H](O)[C@@H]1NC(=O)[C@H]2CN(C(=O)NCc3ccccc3)CCN2C1=O	–	> 2160 nM (inactive)
S=c1[nH]nc(-c2cccnc2)n1/N=C/C=C/c1ccco1	6.33	–
